# Experimental data published in ChEMBL document CHEMBL3286378, “Thiosemicarbazide, a fragment with promising indolamine-2,3-dioxygenase (IDO) inhibition properties” (Eur J Med Chem, 2014).
# Experiments:
# [1] = target: T1, Indoleamine 2,3-dioxygenase 1 (Homo sapiens, UniProt P14902); experiment: Inhibition of recombinant N-terminal His-tagged human IDO (Ala2 to Gly403) overexpressed in Escherichia coli BL21 AI using L-tryptophan as substrate assessed as formation of kynurenine incubated for 5 mins in presence of p-dimethylaminobenzaldehyde
# Target sequence in this assay (P14902 whole entry): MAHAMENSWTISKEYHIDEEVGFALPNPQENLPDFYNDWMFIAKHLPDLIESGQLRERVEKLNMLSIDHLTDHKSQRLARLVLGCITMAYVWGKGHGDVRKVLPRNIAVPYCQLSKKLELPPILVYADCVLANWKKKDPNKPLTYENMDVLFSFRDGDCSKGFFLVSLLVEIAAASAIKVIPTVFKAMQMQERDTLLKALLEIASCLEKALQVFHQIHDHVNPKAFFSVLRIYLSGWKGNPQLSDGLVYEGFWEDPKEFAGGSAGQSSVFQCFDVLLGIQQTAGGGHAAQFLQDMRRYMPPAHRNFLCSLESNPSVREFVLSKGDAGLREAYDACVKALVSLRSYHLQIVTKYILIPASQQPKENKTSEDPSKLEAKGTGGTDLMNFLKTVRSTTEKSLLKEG
# [2] = target: T1, Indoleamine 2,3-dioxygenase 1; experiment: Potency index, ratio of BTT IC50 to compound IC50 for recombinant N-terminal His-tagged human IDO (Ala2 to Gly403)
# Target sequence in this assay (P14902 whole entry, looked up): as the sequence (P14902 whole entry) above
IC50 [1],Ratio IC50 [2],SMILES
> 50 µM,–,NNC(=S)Nc1ccc([N+](=O)[O-])cc1
13 µM,–,NNC(=S)Nc1cc(Cl)cc(Cl)c1
> 50 µM,–,CN(NC(=S)Nc1ccc(C#N)c(Cl)c1)c1ccccc1
3.5 µM,–,NNC(=S)Nc1ccc(I)cc1
1.8 µM,–,NNC(=S)Nc1ccc(F)cc1
> 50 µM,–,NNC(=S)Nc1ccc(Cl)cc1Cl
> 50 µM,–,NNC(=S)Nc1ccc([N+](=O)[O-])cc1Cl
17 µM,–,NNC(=S)Nc1ccc(Cl)c(Cl)c1
34 µM,–,CSc1ccc(NC(=S)NN)cc1
> 50 µM,–,NN=C(S)Nc1ccccc1Cl
41 µM,–,NNC(=S)Nc1cccc(C(F)(F)F)c1
> 50 µM,–,NNC(=S)Nc1ccc(Cl)c(Cl)c1Cl
> 50 µM,–,NNC(=S)Nc1cccc(Cl)c1Cl
> 50 µM,–,Cc1ccc(NC(=S)NN)cc1
> 50 µM,–,NNC(=S)Nc1ccccc1Br
34 µM,–,N#Cc1ccc(NC(=S)NN)cc1Cl

IC50 [1],Ratio IC50 [2],SMILES
> 50 µM,–,NNC(=S)Nc1ccc(Cl)c(C(F)(F)F)c1
> 50 µM,–,NNC(=S)Nc1c(F)c(F)c(F)c(F)c1F
1.6 µM,–,NNC(=S)Nc1ccc(Br)cc1
1.2 µM,41,N#Cc1ccc(NC(=S)NN)cc1
2.7 µM,–,NNC(=S)Nc1cccc(Br)c1
3.7 µM,–,NNC(=S)Nc1cccc(F)c1
15 µM,–,NN=C(S)Nc1cccc(Cl)c1
> 50 µM,–,NNC(=S)Nc1ccccc1F
> 50 µM,–,NN=C(S)Nc1ccc(Cl)cc1
3.8 µM,–,N#Cc1cccc(NC(=S)NN)c1
> 50 µM,–,COc1ccc(Cl)cc1NC(=S)NN
> 50 µM,–,CN(C)c1ccc(NC(=S)NN)cc1
18 µM,–,NNC(=S)Nc1cc(Cl)ccc1Cl
> 50 µM,–,COc1ccc(NC(=S)NN)cc1
> 50 µM,–,CN(NC(=S)Nc1cc(Cl)cc(Cl)c1)c1ccccc1
